Reference: ChEMBL document CHEMBL1135019, “New generation dopaminergic agents. Part 8: heterocyclic bioisosteres that exploit the 7-OH-2-(aminomethyl)chroman D(2) template” (Bioorg Med Chem Lett, 2002)

What was measured:
D(2) dopamine receptor [1] = target: D(2) dopamine receptor (Homo sapiens, UniProt P14416); experiment: biochemical
Description: Affinity for the Dopamine receptor D2S was determined using membranes from CHO cells labeled with [3H]spiperone

D(3) dopamine receptor = D(3) dopamine receptor (Homo sapiens, UniProt P35462); experiment: biochemical
Description: Affinity for the Human Dopamine receptor D3 was determined using membranes from CHO cells labeled with [3H]spiperone

D(4) dopamine receptor = target: T1, D(4) dopamine receptor (Homo sapiens, UniProt P21917); experiment: biochemical
T1 sequence (P21917 whole entry): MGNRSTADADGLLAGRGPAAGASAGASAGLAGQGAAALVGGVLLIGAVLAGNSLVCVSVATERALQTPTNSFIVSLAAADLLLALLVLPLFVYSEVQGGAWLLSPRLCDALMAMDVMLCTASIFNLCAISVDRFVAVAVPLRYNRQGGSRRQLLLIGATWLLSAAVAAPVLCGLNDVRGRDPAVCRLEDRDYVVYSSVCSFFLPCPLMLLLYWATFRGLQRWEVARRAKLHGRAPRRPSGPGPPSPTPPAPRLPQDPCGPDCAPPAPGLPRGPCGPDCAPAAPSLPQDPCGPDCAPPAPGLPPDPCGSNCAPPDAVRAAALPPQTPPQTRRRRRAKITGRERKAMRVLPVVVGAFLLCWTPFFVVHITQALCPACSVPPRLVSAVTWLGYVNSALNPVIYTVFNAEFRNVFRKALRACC
Description: Affinity for the Human Dopamine receptor D4 was determined using membranes from CHO cells labeled with [3H]spiperone

[2] = target: D(2) dopamine receptor (Rattus norvegicus) (UniProt P61169); experiment: Ratio D2 partial agonist, Ki(D2 Low)/Ki(D2 High), to compare a compounds estimated intrinsic activity.
D(2) dopamine receptor [3] = target: T2, D(2) dopamine receptor (Rattus norvegicus, UniProt P61169)
Description: Affinity of compound for D2 receptor in rat striatal membrane determined for agonist state (high affinity state, D2 High) [3H]quinpirole as radioligand (in the absence of GTP and sodium)

D(2) dopamine receptor [4] = target: T2, D(2) dopamine receptor; remark: listed apart in the source
Description: Affinity of compound for Dopamine receptor D2 in rat striatal membrane determined for antagonist state (low affinity state, D2 Low) with [3H]spiperone (using ketanserin to exclude 5-HT2 receptor binding) in the presence of GTP and sodium

Sequence of D(2) dopamine receptor (Rattus norvegicus) (P61169 whole entry, looked up): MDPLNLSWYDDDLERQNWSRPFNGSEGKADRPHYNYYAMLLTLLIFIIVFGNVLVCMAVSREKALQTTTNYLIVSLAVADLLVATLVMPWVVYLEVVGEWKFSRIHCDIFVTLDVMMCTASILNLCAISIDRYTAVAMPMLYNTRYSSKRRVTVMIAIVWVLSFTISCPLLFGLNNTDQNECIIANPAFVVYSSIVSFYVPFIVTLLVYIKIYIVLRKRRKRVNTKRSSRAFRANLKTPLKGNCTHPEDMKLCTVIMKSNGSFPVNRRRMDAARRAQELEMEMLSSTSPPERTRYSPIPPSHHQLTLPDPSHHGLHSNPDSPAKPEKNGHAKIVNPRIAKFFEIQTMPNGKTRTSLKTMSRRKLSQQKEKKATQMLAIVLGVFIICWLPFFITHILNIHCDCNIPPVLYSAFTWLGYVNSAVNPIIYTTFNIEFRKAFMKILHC
T2 sequence (P61169 whole entry): as the sequence (P61169 whole entry, looked up) above
Sequence of D(2) dopamine receptor (Homo sapiens, UniProt P14416) (P14416 whole entry): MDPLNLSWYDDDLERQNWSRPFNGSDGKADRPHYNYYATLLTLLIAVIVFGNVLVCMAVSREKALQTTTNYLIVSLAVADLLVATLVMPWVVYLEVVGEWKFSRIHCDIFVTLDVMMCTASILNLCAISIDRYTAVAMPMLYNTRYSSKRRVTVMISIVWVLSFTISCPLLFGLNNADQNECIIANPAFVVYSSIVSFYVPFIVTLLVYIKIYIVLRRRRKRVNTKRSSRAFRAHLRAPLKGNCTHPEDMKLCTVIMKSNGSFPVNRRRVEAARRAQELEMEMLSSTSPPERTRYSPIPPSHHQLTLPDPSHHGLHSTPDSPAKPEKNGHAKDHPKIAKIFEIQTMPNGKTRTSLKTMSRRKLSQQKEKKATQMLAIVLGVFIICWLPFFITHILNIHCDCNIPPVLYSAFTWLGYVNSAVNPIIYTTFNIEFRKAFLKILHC
Sequence of D(3) dopamine receptor (P35462 whole entry): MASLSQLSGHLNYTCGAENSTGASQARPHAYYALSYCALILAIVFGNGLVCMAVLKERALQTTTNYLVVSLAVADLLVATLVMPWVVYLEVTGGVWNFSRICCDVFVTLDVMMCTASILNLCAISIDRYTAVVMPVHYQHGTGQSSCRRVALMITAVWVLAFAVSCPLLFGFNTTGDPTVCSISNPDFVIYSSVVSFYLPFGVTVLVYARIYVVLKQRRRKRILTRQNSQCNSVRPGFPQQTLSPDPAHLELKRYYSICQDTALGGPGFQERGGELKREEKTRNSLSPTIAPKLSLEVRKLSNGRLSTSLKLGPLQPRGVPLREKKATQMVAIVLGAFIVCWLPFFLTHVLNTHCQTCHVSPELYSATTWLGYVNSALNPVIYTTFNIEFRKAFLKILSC

Row | Ki (D(2) dopamine receptor [1]) | Ki (D(3) dopamine receptor) | Ki (D(4) dopamine receptor) | Ratio [2] | Ki (D(2) dopamine receptor [3]) | Ki (D(2) dopamine receptor [4]) | SMILES
1 | 9.3 nM | 2.4 nM | 359 nM | 42 | – | – | O=C1Cc2c(ccc3c2O[C@@H](CNCc2ccccc2)CC3)N1
2 | – | – | – | 69 | – | – | Oc1nc2c3c(ccc2[nH]1)CC[C@H](CNCc1ccccc1)O3
3 | 132 nM | 263 nM | 37 nM | – | 5.75 nM | 65.1 nM | FC(F)(F)c1nc2ccc3c(c2[nH]1)OC(CNCc1ccccc1)CC3 (racemic)
4 | – | – | – | 12 | – | – | Oc1nc2c3c(ccc2[nH]1)CC[C@@H](CNCc1ccccc1)O3
5 | – | – | – | 50 | – | – | Oc1nc2c3c(ccc2[nH]1)CCC(CNCc1ccccc1)O3 (racemic)
6 | 3 nM | 0.4 nM | 7 nM | – | 0.07 nM | 4.81 nM | O=c1[nH]c2ccc3c(c2[nH]1)O[C@@H](CNCc1ccccc1)CC3
7 | – | – | – | 11 | – | – | FC(F)(F)c1nc2c3c(ccc2[nH]1)CCC(CNCc1ccccc1)O3 (racemic)
8 | 5 nM | 1 nM | 10 nM | – | 0.14 nM | 7.01 nM | O=c1[nH]c2ccc3c(c2[nH]1)OC(CNCc1ccccc1)CC3 (racemic)
9 | 67 nM | 81 nM | 313 nM | – | 5.45 nM | 67.5 nM | O=c1[nH]c2ccc3c(c2[nH]1)O[C@H](CNCc1ccccc1)CC3
10 | 107 nM | 34 nM | 2170 nM | 24 | – | – | c1ccc(CNC[C@H]2CCc3ccc4[nH]ccc4c3O2)cc1
